# Earlier results as cited in PMC6270976, “Pharmacokinetic Study in Mice of Galphimine-A, an Anxiolytic Compound from Galphimia glauca” (Molecules, 2014).
# “Also recorded” adds a separate entry of the source. Read-outs that look alike come from different tables or passages of the source.
# How the values were obtained:
# [1] = cited from earlier work
# [2] = parameters: method as in PMID 18452416; details: humans; cited from earlier work
# [3] = parameters: method as in PMID 14758039; details: cited from earlier work
compound,measurement,setting,value
"COC(=O)[C@@]12CC[C@@]3(C)[C@@H]4C=CC(=O)OC[C@]4([C@@H](C)O)C[C@@H](O)[C@@H]3[C@@]1(C)CC[C@@]1(C)CC=C(C)C[C@]12O [G–B, galphimine-B]",Anxiolytic activity,[1]; among the galphimines,most active; also recorded: highest anxiolytic activity
"COC(=O)[C@@]12CC[C@@]3(C)[C@@H]4C=CC(=O)OC[C@]4([C@@H](C)O)[C@@H](OC(C)=O)[C@@H](O)[C@@H]3[C@@]1(C)CC[C@@]1(C)CC=C(C)C[C@]12O [G–E, galphimine-E]",Anxiolytic activity,[1],inactive
CC1(C)[C@@H](O)CC[C@]2(C)[C@H]3C(=O)C=C4[C@@H]5C[C@@](C)(C(=O)O)CC[C@]5(C)CC[C@@]4(C)[C@]3(C)CC[C@@H]12 [glycyrrhetinic acid],k10,[2],0.0012 min⁻¹
same,k10 (elimination rate constant),"[3]; mice, 100 mg/kg orally, one-compartment model",0.0006 min⁻¹
same,AUC0→∞,[3]; oral administration in mice,"2,454 µg·min·mL^−1"
